SMILES strings stand for the structures. Like-named read-outs stand apart in the source and are kept apart here.

The values that follow come from patent US10017463B2, “Inhibitors of deubiquitinating proteases” (Brandeis University, priority 2014, dated 2018).

For one assay, the target named is T1, cathepsin C (Mus musculus, UniProt P97821).
T1 construct: Mouse full length cathepsin C was from RnD systems; purchased RnD systems (Minneapolis, Minn.)
Description: Cathepsin C inhibition (Gly-Phe-AMC). The assay is classed as biochemical. Particulars: for EC50 for cathepsin C inhibition: 30 min preincubation, substrate 150 μM. The protocol:
Panel A is a plot showing the KM calculation for cathepsin C and substrate, Gly-Phe-AMC. Panel B is a plot showing Cathepsin C was incubated with the stated compound for 30 min prior to addition of substrate and residual activity was measured. Panel C is a plot showing the EC50 values calculated from Panel B.
Cathepsin C is an enzyme important in inflammation. […] The assay was undertaken by incubating the enzyme in the presence of compound for 30 min, then adding substrate (150 μM; kM=75 μM) and measuring residual activity. […] TCM41, TCM42, TCM58, TCM43, and TCM97 (FIG. 12). […] Furthermore, substitution in the 3-position of the aniline function appeared to be more favored than 4-substitution (TCM97 vs TCM41). However substitution on the phenyl ester function was much less important for inhibition, with chloro, fluoro and proton all giving similar inhibition potencies.

Another assay deals with T2, USP9x (Homo sapiens, UniProt Q93008).
T2 construct: Lysate labeling assay on untransfected cells; endogenous in cells; host or cells: K562
T2 sequence (Q93008 whole entry): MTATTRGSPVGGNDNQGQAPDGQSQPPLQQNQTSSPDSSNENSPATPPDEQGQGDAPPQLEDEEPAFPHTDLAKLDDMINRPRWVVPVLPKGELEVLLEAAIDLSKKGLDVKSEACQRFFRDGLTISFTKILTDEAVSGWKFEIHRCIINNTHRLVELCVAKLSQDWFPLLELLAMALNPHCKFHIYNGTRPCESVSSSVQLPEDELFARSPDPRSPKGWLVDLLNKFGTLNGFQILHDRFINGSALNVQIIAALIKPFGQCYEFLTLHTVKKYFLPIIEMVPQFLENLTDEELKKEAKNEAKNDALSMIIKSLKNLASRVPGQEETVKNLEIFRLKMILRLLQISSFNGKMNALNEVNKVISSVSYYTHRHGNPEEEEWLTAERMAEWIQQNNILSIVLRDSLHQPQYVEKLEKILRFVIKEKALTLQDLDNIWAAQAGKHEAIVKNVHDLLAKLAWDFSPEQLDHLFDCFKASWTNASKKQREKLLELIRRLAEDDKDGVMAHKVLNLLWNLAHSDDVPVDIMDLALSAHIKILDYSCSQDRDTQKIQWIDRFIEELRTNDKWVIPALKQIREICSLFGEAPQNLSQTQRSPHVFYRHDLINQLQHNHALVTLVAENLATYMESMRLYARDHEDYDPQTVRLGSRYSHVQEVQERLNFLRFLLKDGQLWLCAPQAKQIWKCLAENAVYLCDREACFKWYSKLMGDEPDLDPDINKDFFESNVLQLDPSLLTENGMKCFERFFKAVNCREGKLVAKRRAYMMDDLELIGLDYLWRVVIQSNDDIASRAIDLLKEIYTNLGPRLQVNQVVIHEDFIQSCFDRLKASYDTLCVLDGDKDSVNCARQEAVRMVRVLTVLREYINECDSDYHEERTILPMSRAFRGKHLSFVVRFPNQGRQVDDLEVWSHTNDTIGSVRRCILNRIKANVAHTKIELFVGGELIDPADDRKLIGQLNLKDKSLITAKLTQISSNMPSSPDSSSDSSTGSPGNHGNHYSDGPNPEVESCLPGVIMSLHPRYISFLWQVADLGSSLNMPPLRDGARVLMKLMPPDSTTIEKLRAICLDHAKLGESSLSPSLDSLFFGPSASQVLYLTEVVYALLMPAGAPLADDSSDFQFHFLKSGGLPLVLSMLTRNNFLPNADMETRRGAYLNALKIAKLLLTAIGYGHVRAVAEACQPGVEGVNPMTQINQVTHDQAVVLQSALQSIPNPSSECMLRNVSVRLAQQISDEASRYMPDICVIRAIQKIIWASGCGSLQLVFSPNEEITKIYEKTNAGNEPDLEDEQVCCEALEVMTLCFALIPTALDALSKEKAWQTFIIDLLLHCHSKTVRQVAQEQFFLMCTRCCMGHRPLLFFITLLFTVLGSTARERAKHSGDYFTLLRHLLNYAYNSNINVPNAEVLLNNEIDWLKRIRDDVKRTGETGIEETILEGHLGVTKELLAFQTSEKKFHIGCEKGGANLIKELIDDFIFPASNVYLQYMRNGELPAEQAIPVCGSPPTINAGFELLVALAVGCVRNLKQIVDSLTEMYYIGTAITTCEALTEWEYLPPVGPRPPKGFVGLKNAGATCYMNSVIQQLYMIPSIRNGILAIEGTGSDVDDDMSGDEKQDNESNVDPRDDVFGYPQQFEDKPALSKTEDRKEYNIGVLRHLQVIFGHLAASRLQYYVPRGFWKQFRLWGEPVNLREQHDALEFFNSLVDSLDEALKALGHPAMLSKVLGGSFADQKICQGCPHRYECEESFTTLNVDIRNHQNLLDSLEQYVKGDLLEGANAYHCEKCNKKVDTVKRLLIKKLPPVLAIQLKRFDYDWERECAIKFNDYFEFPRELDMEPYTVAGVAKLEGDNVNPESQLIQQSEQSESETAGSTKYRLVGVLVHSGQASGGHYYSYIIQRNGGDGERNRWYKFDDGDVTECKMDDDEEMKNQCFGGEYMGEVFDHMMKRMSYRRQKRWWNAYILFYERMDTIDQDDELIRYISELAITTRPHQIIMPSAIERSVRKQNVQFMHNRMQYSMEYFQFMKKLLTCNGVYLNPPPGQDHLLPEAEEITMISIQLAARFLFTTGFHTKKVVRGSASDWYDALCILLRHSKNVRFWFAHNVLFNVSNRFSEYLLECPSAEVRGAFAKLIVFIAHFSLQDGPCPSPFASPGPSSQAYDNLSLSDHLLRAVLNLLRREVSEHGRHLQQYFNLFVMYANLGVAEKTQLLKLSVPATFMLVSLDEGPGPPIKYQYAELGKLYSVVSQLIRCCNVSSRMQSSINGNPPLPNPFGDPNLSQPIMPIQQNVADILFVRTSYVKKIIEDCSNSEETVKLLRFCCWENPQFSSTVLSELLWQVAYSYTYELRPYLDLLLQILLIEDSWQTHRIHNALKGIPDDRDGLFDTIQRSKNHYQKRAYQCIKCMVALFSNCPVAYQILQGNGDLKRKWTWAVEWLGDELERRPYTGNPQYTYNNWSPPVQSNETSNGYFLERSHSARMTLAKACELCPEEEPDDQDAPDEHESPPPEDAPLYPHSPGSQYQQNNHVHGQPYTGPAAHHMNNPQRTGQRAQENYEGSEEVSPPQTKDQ
The experiment in a line: HA-Ubiquitin-Vinylsulfone activity profiling in K562 lysates. The format is biochemical. The protocol:
Panel B is an image of an immunoblot showing the titration of TCM23 and TCM28 in K562 lysates. Panel C is a plot showing the quantitation of band corresponding to USP9x in panel B. Panel D is an image of an immunoblot showing the titration of WP1130 in K562 lysates. Panel E is a plot showing the quantification of the efficacy of ITCs for the inhibition of USP9x in K562 lysates (see also Table 2).
[…] After this time HA-Ub-VS (1.5 μM) was added and incubated for 15 min. After this time reaction mixture (15 μL) was removed and quenched in 2× (final concentration) reducing Laemeli buffer. The reaction mixtures were heated to 37° C. for 10 min prior to analysis by western blot for HA.

The test system of another assay is G76VUb-GFP in COS1 cells. The experiment in a line: UbG76V-GFP proteasome assay in COS1 cells. The format is cell-based. Conditions: COS1, 8 h. The protocol: COS1 cells at approx. 75% confluence in a 48 well plate were transiently transfected with a plasmid encoding G76VUb-GFP using Mirus 2020 reagent. After this time media with either compound in DMSO or 1% DMSO was added to the cells and the cells were incubated for 8 h. After this time, cells were trypsinized, diluted with 1% FBS in PBS (FACS buffer) then centrifuged at 700 g. After this time cells on ice were treated with FACS buffer containing propidium iodide (0.05 mg/mL). The GFP (indicating proteasome activity) and red fluorescence (dye exclusion showing acute toxicity) were subsequently measured by FACS.

The next assay relates to B16-F10. Description: Proliferation assay, B16-F10. Conditions: read-out: EC50 B16-F10; WP1130, time not stated.
A further assay has as its system 3T3. Description: Proliferation assay, 3T3. Particulars: read-out: EC50 3T3; WP1130, time not stated.
The test system of another assay is HeLa. Description: Proliferation assay, HeLa. Particulars: read-out: EC50 HeLa.
The next assay deals with MCF7. The experiment in a line: Proliferation assay, MCF7. Conditions: read-out: EC50 MCF7.
Assay [1] concerns DUBs other than USP9x, most notably UCHL5. Description: HA-Ubiquitin-Vinylsulfone activity profiling, other DUBs. The format is biochemical. The protocol: Lysate labeling assay on untransfected cells (1.5 mg/mL lysate lysed using a Dounce homogenizer, 10 strokes, in 75 mM potassium phosphate pH 7.6, 150 mM NaCl, 0.75 mM BME) was run with the stated concentration of inhibitor (or 1% DMSO control) for 30 min. After this time HA-Ub-VS (1.5 μM) was added and incubated for 15 min. After this time reaction mixture (15 μL) was removed and quenched in 2× (final concentration) reducing Laemeli buffer. The reaction mixtures were heated to 37° C. for 10 min prior to analysis by western blot for HA. […] EC50s calculated by this method were in agreement with those found in the HA-blot.

A further assay concerns DUBs. Description: Cy5-Ub-VME activity profiling of treated BaF3/p210 cells. The assay is classed as cell-based, murine. Conditions: TU71 for 2.5 h or 4 h. The protocol: FIG. 9 has two panels (A and B) depicting data showing that TUs inhibit DUBs in cells. BaF3/p210 cells were incubated with the stated concentration of compound for 4 h. After this time cells were lysed using beads, lysates were normalized, then exposed to Cy5-Ub-VME for 5 min. After quenching, lysates were resolved by SDS-PAGE, analyzed on typhoon, then stained by Coomassie. Panel A is an image of the SDS-PAGE gel visualized via Typhoon imager. Panel B is an image of the SDS PAGE gel stained with Coomassie.
(§1) Panel A is the chemical structure of TU71. Panel B is an image of an immunoblot showing a K562 cell was treated with TU71 for 15 min at which time HAUb-VS was added. After an additional 15 min, aliquots were quenched in reducing loading buffer and analyzed by SDS-PAGE and HA blot. […] BaF3/p21 0 cells were treated with TU71 for 2.5 h (Panel C) or 4 h (Panel D). Cells were harvested, lysed and incubated (0.7 mg/mL protein) with 250 nM Cy5-UbVME for 5 min at 37° C. […] Panel E is an image of an immunoblot showing BaF3/p210 cells were incubated with TU71 for 4 h. The cells were harvested, lysed, analyzed by SDS-PAGE and immunoblotted as indicated. “cPARP” indicates the caspase cleavage of product of PARP and is indicative of apoptosis. Panel F is a bar graph showing data representative of mean±range of two independent experiments, one performed in duplicate of the blot depicted in Panel E.
The increased promiscuity of the inhibitors when the experiment is carried out in cells likely stems from the increased assay time (4 h vs 20 min) coupled with the slow on rates of the inhibitors and their targets.

The next assay concerns MCL-1. Description: MCL-1 immunoblot in BaF3/p210 cells. Conditions: 4 h. The assay is classed as cell-based, murine. As to the method:
as §1
(In general: Immunoblotting shows a protein as a band on a membrane.)

The subject of assay [2] is BaF3/p210 cells. The experiment in a line: Apoptosis (cPARP) in BaF3/p210 cells. Conditions: 4 h. The assay is classed as cell-based, murine. As to the method: as §1
Assay [3] deals with BaF3/p210 cells. The experiment in a line: Proliferation assay (Alamar Blue), BaF3/p210. The assay is classed as cell-based, murine. From the text:
This cell line consists of engineered murine leukemia cells that ectopically express Bcr-Abl. Parent BaF3 cells require exogenous interleukin 3 (IL3) because IL3 stimulates expression of MCL1, which is required for survival. However, BaF3/p210 cells require no exogenous interleukins but need Bcr-Abl for survival.
(In general: Alamar Blue is a resazurin reagent that responds to reducing activity.)

The mark [4] stands for this setting: inhibition of USP9x in K562 lysates, data from FIG. 1, read-out: EC50.
The mark [5] stands for this setting: HA-Ub-VS profiling, values in text, read-out: EC50 for USP9x.

T1 sequence (P97821 231-393 limits assumed): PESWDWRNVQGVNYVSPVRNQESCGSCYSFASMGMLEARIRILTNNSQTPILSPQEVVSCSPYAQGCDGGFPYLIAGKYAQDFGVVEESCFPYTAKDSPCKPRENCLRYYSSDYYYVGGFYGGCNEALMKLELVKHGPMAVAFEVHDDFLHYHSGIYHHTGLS
T1 sequence (P97821 25-134 limits assumed): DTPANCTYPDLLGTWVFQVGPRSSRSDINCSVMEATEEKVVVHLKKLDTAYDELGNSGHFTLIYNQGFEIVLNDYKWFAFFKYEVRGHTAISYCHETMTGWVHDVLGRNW
T1 sequence (P97821 394-462 limits assumed): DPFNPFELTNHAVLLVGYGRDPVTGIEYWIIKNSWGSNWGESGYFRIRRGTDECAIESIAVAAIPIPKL
Description for 3T3: (§2) Proliferation assays for adherent cells were conducted by plating cells at 5%-10% confluence in 96 well plates together with compound or 0.1% DMSO. Cells were allowed to grow for 48 h and then Alamar Blue® was added and number of cells was measured by fluorescence on a microplate reader.
Description for B16-F10: as §2
Description for HeLa: as §2
Description for MCF7: as §2

Take `Cc1ccc(OC(=S)N(C(=S)Oc2ccc(C)cc2)c2ccc(CNC(=O)OC(C)(C)C)cc2)cc1` [TCM42]: the “EC50 for cathepsin C inhibition” value on cathepsin C is reported as “low micromolar range”.

`CC(C)(C)OC(=O)NCc1ccc(N(C(=S)Oc2ccc(F)cc2)C(=S)Oc2ccc(F)cc2)cc1` [TCM58]: on cathepsin C, the “EC50 for cathepsin C inhibition” value was “low micromolar range”.

In general, EC50 refers to the concentration at which the effect is half-maximal. As to `Fc1cccc(N=C=S)c1` [TU81], at USP9x (setting [4]), the EC50 was 20 µM.

In the case of `O=[N+]([O-])c1ccc(N=C=S)cc1` [TU79], the EC50 at USP9x (setting [4]) came to 11 µM.

Take `CC(C)(C)OC(=O)NCc1cccc(N(C(=S)Oc2ccccc2)C(=S)Oc2ccccc2)c1` [TCM97]: on cathepsin C, the “EC50 for cathepsin C inhibition” value was “low micromolar range”.

`N#Cc1cc(F)cc(N=C=S)c1` [TU74]: at USP9x (setting [4]), the EC50 is 22 µM.

For the molecule `CC(C)C[C@H](NC(=O)[C@H](Cc1ccccc1)NC(=O)c1cnccn1)B(O)O` [Bortezomib, reference compound], the GFP signal result with G76VUb-GFP in COS1 cells is recorded as “two-fold increase in GFP signal”.

With `CC(C)(C)OC(=O)NCc1ccc(N(C(=S)Oc2ccccc2)C(=S)Oc2ccccc2)cc1` [TCM41], the “EC50 for cathepsin C inhibition” value on cathepsin C is on record as “low micromolar range”.

`CCC[C@H](NC(=O)/C(C#N)=C/c1cccc(Br)n1)c1ccccc1` [WP1130, reference compound]: the EC50 with B16-F10, in the assay with 3T3, in the assay on HeLa, at USP9x (setting [5]) and with MCF7 was 3 µM throughout. Also, in assay [1] (conditions as for USP9x EC50), the “inhibition of other USPs” value is listed as “also inhibited”.

For the molecule `S=C=Nc1ccccc1` [TU76], the EC50 at USP9x (setting [5]) was greater than 50 µM; at USP9x (setting [4]) it was 131 µM.

Regarding `CC(C)(C)OC(=O)NCCc1cccc(N=C=S)c1` [TU71], in the assay on DUBs, the “DUB inhibition in cells” value is given as “inhibits DUBs”. The “level of MCL-1” value in the assay on MCL-1 is “decreases the level”. Besides, the apoptosis result with BaF3/p210 cells [2] is recorded as “initiates apoptosis”. In addition, the “growth inhibition of BaF3/p210 cells” value in the assay with BaF3/p210 cells [3] was “did not show a significant growth inhibition until very high concentrations”. For the same molecule, the EC50 is 6 to 12 µM on USP9x (setting [5]); 20 ± 1 µM at USP9x (K562 treated with TU71 for 15 min, then HAUb-VS 15 min (FIG. 13), read-out: EC50 for USP9x inhibition); 9 µM at USP9x (setting [4]). Besides, in assay [1] (at 85 μM), the “inhibition of other DUBs other than USP9x” value is on record as “weak inhibition”. In [1] (below 25 μM), the “inhibition of other DUBs” value is on record as “little inhibition”.

As to `CN(C)c1ccc(N(C(=S)Oc2ccccc2)C(=S)Oc2ccccc2)cc1` [TCM43], on cathepsin C, the “relative potency as cathepsin C inhibitor” value is “most potent inhibitor” and the “EC50 for cathepsin C inhibition” value is given as “low micromolar range”.

On to `Cc1cccc(N=C=S)c1` [TU70], for which the EC50 on USP9x (setting [5]) is greater than 50 µM; at USP9x (setting [4]), 61 µM.

Consider `CC(C)(C)OC(=O)NCc1ccc(N(C(=S)Oc2ccc(Cl)cc2)C(=S)Oc2ccc(Cl)cc2)cc1` [TCM40], for which, at cathepsin C, the “EC50 for cathepsin C inhibition” value was “low micromolar range”.
